Experimental findings from patent US10562857B2 (AFASCI, Inc., priority 2015, dated 2020) are described below.

One data set concerns DRG ion channels Na+. In words: Sodium currents in DRG neurons, patch clamp. The settings on record: Table 2. Format: cell-based, rodent. As to the method:
All the procedures related to animal handling were in strict accordance with NIH guidelines and IACUC approved protocols. Briefly, the spine was taken out and split into two halves from the middle line after sacrificing the mice by decapitation. […] The DRG neurons were minced with fine scissors and incubated at 35° C. for 50 min. […] Finally the cells were dispersed onto poly-1-ornithine-coated cover slips and maintained in a modified Krebs solution with streptomycin sulfate (0.2 mM), Penicillin G Sodium (0.3 mM), and Gentamycin (0.1 mM) at 21° C. […] All experiments were performed at room temperature (around 21° C.). Whole-cell currents were recorded using a MultiClamp 700B amplifier and analyzed offline with pCLAMP10.4 software (Molecular Devices, LLC, Sunnyvale Calif., USA). […] The internal solution was composed (in mM) of 125 CsCl, 10 HEPES (acid), 10 EGTA (ethylene glycol tetraacetic acid), 1 CaCl2, 1 MgCl2, 4 MgATP and 0.3 […] 7.3-7.4 adjusted with CsOH; osmolality verified as 295 mOsm/kg). Since the sodium ions were absent in the external solution, tetrodoctoxin was not needed. […] To record sodium (Na^+) currents in DRG neurons, the external solution used the modified Krebs solution specified above. […] To record potassium currents in DRG neurons, the external solution used the modified Kreb's solution specified above. The internal solution was composed (in mM) of 65 KCl, 80 KF, 5 KOH, 10 EGTA, 2 MgATP (pH 7.3-7.4 adjusted with KOH). Recording electrodes were fabricated using a P-87 puller (Sutter Instrument Co., Novato, Calif., USA). […] All reagents were purchased from Sigma unless specified otherwise. […] Selectivity among the three subtypes of the Cav3 T-type channel, and off-target effects on other key ion channels of the representative example compounds are presented in Table 2. Sodium and potassium channels in the rodent DRG neurons were recorded and tested as described above. The human ether-a-go-go-related gene (hERG) encodes the rapidly activating potassium channel (IKr) contributing to the repolarization of the cardiac action potential. The blockade of hERG can lead to a QT prolongation in the electrocardiogram known as long QT syndrome (Sanguinetti, et al., 1995). Therefore the representative example compounds in Table 2 were tested against the hERG channel.

The target of another data set is T1, Cardiac Na+ channels (Homo sapiens, UniProt Q14524).
T1 construct: host or cells: human iPSC-derived cardiomyocytes
T1 sequence (Q14524 whole entry): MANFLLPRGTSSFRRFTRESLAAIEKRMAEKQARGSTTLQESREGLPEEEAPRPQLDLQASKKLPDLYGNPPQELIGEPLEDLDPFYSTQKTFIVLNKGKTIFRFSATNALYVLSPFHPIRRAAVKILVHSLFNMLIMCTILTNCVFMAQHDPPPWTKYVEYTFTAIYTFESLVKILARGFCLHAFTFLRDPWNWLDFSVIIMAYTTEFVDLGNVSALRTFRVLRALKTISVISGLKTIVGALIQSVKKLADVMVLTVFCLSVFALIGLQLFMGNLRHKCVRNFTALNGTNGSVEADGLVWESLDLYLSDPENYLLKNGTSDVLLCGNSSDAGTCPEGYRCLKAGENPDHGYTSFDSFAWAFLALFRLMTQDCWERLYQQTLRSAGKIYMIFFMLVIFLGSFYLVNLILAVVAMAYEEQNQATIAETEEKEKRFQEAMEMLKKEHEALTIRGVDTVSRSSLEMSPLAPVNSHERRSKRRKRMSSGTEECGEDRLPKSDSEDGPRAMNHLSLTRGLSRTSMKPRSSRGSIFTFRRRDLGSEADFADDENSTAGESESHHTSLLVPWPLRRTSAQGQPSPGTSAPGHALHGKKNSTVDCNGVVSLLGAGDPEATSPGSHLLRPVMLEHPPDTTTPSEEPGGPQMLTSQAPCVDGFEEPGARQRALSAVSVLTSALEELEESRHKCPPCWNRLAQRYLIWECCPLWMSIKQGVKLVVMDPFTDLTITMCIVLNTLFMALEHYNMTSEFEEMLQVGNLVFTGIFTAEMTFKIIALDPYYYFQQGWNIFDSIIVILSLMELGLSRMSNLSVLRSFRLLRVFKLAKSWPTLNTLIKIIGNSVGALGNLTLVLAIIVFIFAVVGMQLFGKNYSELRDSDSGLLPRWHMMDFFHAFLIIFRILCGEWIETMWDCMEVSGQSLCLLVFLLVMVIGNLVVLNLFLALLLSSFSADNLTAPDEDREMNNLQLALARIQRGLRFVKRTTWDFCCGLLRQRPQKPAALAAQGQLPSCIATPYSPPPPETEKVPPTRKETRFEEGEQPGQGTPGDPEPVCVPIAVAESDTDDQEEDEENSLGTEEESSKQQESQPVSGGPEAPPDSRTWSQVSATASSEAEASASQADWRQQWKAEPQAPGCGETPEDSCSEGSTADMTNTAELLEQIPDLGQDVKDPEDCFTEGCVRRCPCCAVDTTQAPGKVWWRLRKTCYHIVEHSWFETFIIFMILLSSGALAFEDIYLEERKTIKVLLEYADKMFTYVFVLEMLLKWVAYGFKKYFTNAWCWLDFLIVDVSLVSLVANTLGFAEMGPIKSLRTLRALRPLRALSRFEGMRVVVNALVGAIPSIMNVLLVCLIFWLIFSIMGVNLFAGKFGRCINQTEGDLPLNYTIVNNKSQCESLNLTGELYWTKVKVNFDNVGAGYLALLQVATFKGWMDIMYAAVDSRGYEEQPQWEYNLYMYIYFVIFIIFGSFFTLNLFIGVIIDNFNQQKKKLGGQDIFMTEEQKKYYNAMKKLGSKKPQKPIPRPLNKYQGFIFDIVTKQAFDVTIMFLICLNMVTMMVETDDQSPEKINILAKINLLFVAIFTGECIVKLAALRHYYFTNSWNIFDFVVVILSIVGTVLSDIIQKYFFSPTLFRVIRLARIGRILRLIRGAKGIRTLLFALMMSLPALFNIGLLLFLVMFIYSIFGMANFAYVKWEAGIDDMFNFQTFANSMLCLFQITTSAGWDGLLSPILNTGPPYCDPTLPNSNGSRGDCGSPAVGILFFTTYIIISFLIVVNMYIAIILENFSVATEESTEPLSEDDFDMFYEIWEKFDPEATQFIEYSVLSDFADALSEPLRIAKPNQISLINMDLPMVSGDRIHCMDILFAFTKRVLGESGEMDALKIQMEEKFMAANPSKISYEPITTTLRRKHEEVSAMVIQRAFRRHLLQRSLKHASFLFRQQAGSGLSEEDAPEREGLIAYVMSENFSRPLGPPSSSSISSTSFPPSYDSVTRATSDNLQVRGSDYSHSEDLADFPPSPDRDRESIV
As to the kind of experiment: Cardiac sodium currents in human iPSC-derived cardiomyocytes. Format: cell-based. The note with it: for IC50: human iPSC cardiomyocytes; for inhibition at 3 µM: values in brackets, read-out: Cardiac Na+ (%) inh. at 3 μM. As to the method: Cardiac sodium channels play a critical role in heart contraction. Inhibition of these sodium channels could potentially cause severe unwanted side effects. Therefore the representative example compounds in Table 2 were tested in cardiac sodium channels. Cardiomyocytes derived from human induced pluripotent stem cells (iPSC-CM) were obtained from Axol Bioscience Ltd (Cambridge, UK). Cells were thawed and grown on matrigel coated glass coverslips in Cardiomyocyte Maintenance Medium (Axol Bioscience). […] The internal solution was composed (in mM) of 120 KF, 10 HEPES, 11 EGTA, 1 CaCl2, 1 MgCl2, 10 TEA-Cl (pH 7.2 adjusted with KOH). Sodium currents were recorded at a holding potential of −100 mV and depolarized to −20 mV. Cells were incubated with example compounds until currents reached a steady-state level. To determine IC50 values, example compounds were applied gradually from low to high concentrations. The current responses were normalized to the control, percent inhibition was calculated and a sigmoidal dose response curve was plotted to determine IC50 values as described above.

Another data set concerns the target T2, hERG channel (Homo sapiens, UniProt Q12809).
T2 construct: expressed in transfected cells; host or cells: CHO
In words: hERG patch clamp in hERG-expressing CHO cells. The format is cell-based. The procedure:
Sodium and potassium channels in the rodent DRG neurons were recorded and tested as described above. The human ether-a-go-go-related gene (hERG) encodes the rapidly activating potassium channel (IKr) contributing to the repolarization of the cardiac action potential. […] Therefore the representative example compounds in Table 2 were tested against the hERG channel.
Whole-cell patch clamp electrophysiology is employed to test compounds and a positive control compound. Extracellular Ringer's solution contains (in mM): NaCl (130), KCl (5), CaCl2 (1), Glucose (10), HEPES-Na (10) (pH 7.4 adjusted with HCl). Internal pipette solution contains (in mM): KF (120), CaCl2 (1), MgCl2 (1), KCl (10), EGTA (11), HEPES (10), KOH (11) (pH 7.2 adjusted with KOH). The hERG potassium currents are recorded under a holding potential of −80 mV and then depolarized to 40 mV for 2.5 seconds to activate the hERG channel. The peak tail currents are induced by a repolarizing pulse to −50 mV for 4 seconds. A 250 millisecond prepulse to −50 mV is applied for leak subtraction. This voltage-clamp pulse protocol is performed continuously during the experiment every 20 seconds allowing recovery from inactivation. For IC50 determination, each concentration is applied for 2 mins to reach a steady-state inhibitory level prior to the next higher concentrations tested. Each concentration is tested at 2-3 times (n=2-3).

Structures are written as SMILES. Where two headings read alike, the source gives them in different places.

T2 sequence (Q12809 whole entry): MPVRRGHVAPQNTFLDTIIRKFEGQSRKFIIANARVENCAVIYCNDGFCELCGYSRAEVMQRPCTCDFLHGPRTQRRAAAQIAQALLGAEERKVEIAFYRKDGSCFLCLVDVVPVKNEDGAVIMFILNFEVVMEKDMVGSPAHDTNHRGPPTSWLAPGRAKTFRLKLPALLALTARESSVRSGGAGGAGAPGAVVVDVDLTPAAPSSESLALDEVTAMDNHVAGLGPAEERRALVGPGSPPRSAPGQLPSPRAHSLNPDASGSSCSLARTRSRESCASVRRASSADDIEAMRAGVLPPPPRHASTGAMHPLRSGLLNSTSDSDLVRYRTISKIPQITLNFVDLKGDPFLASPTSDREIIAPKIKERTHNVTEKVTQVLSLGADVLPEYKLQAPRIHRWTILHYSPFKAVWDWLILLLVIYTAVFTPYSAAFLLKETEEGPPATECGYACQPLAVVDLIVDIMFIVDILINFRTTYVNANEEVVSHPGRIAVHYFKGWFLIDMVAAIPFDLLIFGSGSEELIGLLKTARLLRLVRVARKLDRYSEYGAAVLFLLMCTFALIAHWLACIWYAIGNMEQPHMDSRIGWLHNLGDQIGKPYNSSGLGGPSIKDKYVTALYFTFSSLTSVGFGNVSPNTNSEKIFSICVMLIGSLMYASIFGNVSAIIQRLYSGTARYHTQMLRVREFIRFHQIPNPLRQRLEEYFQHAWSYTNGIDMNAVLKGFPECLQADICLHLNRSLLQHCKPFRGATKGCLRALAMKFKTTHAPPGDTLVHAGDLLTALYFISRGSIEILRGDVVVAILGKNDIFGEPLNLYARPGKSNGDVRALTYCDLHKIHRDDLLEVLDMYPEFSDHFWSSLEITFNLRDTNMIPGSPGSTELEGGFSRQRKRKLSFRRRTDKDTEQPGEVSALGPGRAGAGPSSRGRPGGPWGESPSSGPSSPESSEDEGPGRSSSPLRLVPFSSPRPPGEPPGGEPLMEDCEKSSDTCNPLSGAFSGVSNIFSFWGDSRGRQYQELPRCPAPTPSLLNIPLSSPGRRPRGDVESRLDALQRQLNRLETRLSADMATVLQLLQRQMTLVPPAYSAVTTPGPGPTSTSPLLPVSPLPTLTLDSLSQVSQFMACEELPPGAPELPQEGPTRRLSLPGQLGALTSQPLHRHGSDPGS

What is called IC50 is the concentration needed to halve the response being measured. As to `CC(C)(C)NC(=O)CN1CCC2(CC1)CC2NC(=O)c1cc(F)cc(Cl)c1` (single isomer, unassigned) [Example 128, (S)—N-(6-(2-(tert-Butylamino)-2-oxoethyl)-6-azaspiro[2.5]octan-1-yl)-3-chloro-5-fluorobenzamide or (R)—N-(6-(2-(tert-Butylamino)-2-oxoethyl)-6-azaspiro[2.5]octan-1-yl)-3-chloro-5-fluorobenzamide], the values for the IC50 in the data set on DRG ion channels Na+, against Cardiac Na+ channels and at hERG channel were greater than 100 µM, 83.5 µM and 7 µM, respectively.
On to `CC(C)(C)NC(=O)CN1CCC2(CC1)C[C@H]2C(=O)Nc1cc(C(F)(F)F)cc(C(F)(F)F)c1` (single isomer, unassigned) [Example 132, (R)—N-(3,5-Bis(trifluoromethyl)phenyl)-6-(2-(tert-butylamino)-2-oxoethyl)-6-azaspiro[2.5]octane-1-carboxamide or (S)—N-(3,5-Bis(trifluoromethyl)phenyl)-6-(2-(tert-butylamino)-2-oxoethyl)-6-azaspiro[2.5]octane-1-carboxamide], for which the IC50 is 14.3 µM with DRG ion channels Na+ and 51.6 µM against Cardiac Na+ channels. Also, the “hERG (%) inh. at 1 μM” value at hERG channel (1 μM, values in brackets) is “(9%)”.
In the case of `CC(C)(C)CCN1C[C@@H]2[C@@H](CNC(=O)c3cc(Cl)cc(Cl)c3)[C@@H]2C1` [ML218, 3,5-Dichloro-N-[[(1α,5α,6-exo,6α)-3-(3,3-dimethylbutyl)-3-azabicyclo[3.1.0]hex-6-yl]methyl]benzamide, reference compound], the IC50 stood at 55.6 µM in the data set with DRG ion channels Na+; 39.8 µM against Cardiac Na+ channels; 2.1 µM on hERG channel (Table 2, read-out: hERG IC50).
As to `CC(C)(C)NC(=O)CN1CCC2(CC1)C[C@H]2NC(=O)C12CC3CC(CC(C3)C1)C2` (single isomer, unassigned) [Example 145, N—((R)-6-(2-(tert-butylamino)-2-oxoethyl)-6-azaspiro[2.5]octan-1-yl)adamantane-1-carboxamide or N—((S)-6-(2-(tert-butylamino)-2-oxoethyl)-6-azaspiro[2.5]octan-1-yl)adamantane-1-carboxamide], the IC50 in the data set on DRG ion channels Na+ was greater than 30 µM; on hERG channel (Table 2, read-out: hERG IC50) it was greater than 30 µM. The inhibition at 3 µM at Cardiac Na+ channels stood at 0%.
In the case of `CC(C)(C)CCN1CCC2(CC1)CC2NC(=O)c1cc(F)cc(Cl)c1` (stereo not shown) [Example 28, 3-Chloro-N-(6-(3,3-dimethylbutyl)-6-azaspiro[2.5]octan-1-yl)-5-fluorobenzamide], the results for the IC50 in the data set on DRG ion channels Na+, at Cardiac Na+ channels and against hERG channel were 23.4 µM, 37.2 µM and 3.6 µM, respectively.
Turning to `CC(C)(C)NC(=O)CN1CCC(CNC(=O)c2cc(F)cc(Cl)c2)CC1` [Z944, reference compound], the IC50 in the data set on DRG ion channels Na+ was greater than 30 µM; against Cardiac Na+ channels it was 21.4 µM; on hERG channel (Table 2, read-out: hERG IC50) it was 9.5 µM.
Turning to `CC(C)(C)NC(=O)CN1CCC2(CC1)C[C@H]2NC(=O)c1cc(F)cc(Cl)c1` (single isomer, unassigned) [Example 129, (R)—N-(6-(2-(tert-Butylamino)-2-oxoethyl)-6-azaspiro[2.5]octan-1-yl)-3-chloro-5-fluorobenzamide or (S)—N-(6-(2-(tert-Butylamino)-2-oxoethyl)-6-azaspiro[2.5]octan-1-yl)-3-chloro-5-fluorobenzamide], the IC50 in the data set on DRG ion channels Na+ is greater than 100 µM; on hERG channel (Table 2, read-out: hERG IC50), 16 µM.
In the case of `CC(C)(C)NC(=O)CN1CCC2(CC1)CC2C(=O)Nc1cc(F)cc(C(F)(F)F)c1` (stereo not shown) [Example 141, 6-(2-(tert-Butylamino)-2-oxoethyl)-N-(3-fluoro-5-(trifluoromethyl)phenyl)-6-azaspiro[2.5]octane-1-carboxamide], the IC50 is greater than 30 µM in the data set with DRG ion channels Na+ and 17.4 µM at hERG channel (Table 2, read-out: hERG IC50). Besides, at Cardiac Na+ channels, the inhibition at 3 µM amounted to 28%.
Regarding `CC(C)(C)CCN1CCC2(CC1)C[C@H]2NC(=O)c1cc(C(F)(F)F)ccc1Cl` (single isomer, unassigned) [Example 147, (R)-2-Chloro-N-(6-(3,3-dimethylbutyl)-6-azaspiro[2.5]octan-1-yl)-5-(trifluoromethyl)benzamide or (S)-2-Chloro-N-(6-(3,3-dimethylbutyl)-6-azaspiro[2.5]octan-1-yl)-5-(trifluoromethyl)benzamide], the IC50 came to 14.3 µM with DRG ion channels Na+; 43 µM against Cardiac Na+ channels; 1.8 µM on hERG channel (Table 2, read-out: hERG IC50).
Take `CC(C)(C)NC(=O)CN1CCC2(CC1)C[C@H]2NC(=O)c1cc(F)cc(C(F)(F)F)c1` (single isomer, unassigned) [Example 130, (R)—N-(6-(2-(tert-Butylamino)-2-oxoethyl)-6-azaspiro[2.5]octan-1-yl)-3-fluoro-5-(trifluoromethyl)benzamide or (S)—N-(6-(2-(tert-Butylamino)-2-oxoethyl)-6-azaspiro[2.5]octan-1-yl)-3-fluoro-5-(trifluoromethyl)benzamide]: the IC50 is greater than 100 µM in the data set on DRG ion channels Na+; 31.4 µM on Cardiac Na+ channels; 8 µM on hERG channel (Table 2, read-out: hERG IC50).
Regarding `CC(C)(C)CCN1CCC2(CC1)C[C@H]2NC(=O)c1cc(C(F)(F)F)cc(C(F)(F)F)c1` (single isomer, unassigned) [Example 146, (R)—N-(6-(3,3-dimethylbutyl)-6-azaspiro[2.5]octan-1-yl)-3,5-bis(trifluoromethyl)benzamide or (S)—N-(6-(3,3-dimethylbutyl)-6-azaspiro[2.5]octan-1-yl)-3,5-bis(trifluoromethyl)benzamide], the IC50 in the data set on DRG ion channels Na+ is 8.7 µM; against Cardiac Na+ channels, 27.8 µM; on hERG channel (Table 2, read-out: hERG IC50), 1.2 µM.
As for `CC(C)(C)NC(=O)CN1CCC2(CC1)C[C@H]2NC(=O)c1cc(Cl)cc(Cl)c1` (single isomer, unassigned) [Example 57, (R)—N-(6-(2-(tert-Butylamino)-2-oxoethyl)-6-azaspiro[2.5]octan-1-yl)-3,5-dichlorobenzamide or (S)—N-(6-(2-(tert-Butylamino)-2-oxoethyl)-6-azaspiro[2.5]octan-1-yl)-3,5-dichlorobenzamide], the IC50 in the data set with DRG ion channels Na+ was 37.2 µM; against Cardiac Na+ channels it was 50.9 µM. The inhibition at 1 µM at hERG channel (human, CHO cells expressing hERG, pH 7.4, 1 μM, values in brackets, read-out: hERG (%) inh. at 1 μM) is 22%.
For `CC(C)(C)NC(=O)CN1CCC2(CC1)CC2NC(=O)c1cc(F)cc(Cl)c1` (stereo not shown) [Example 17, N-(6-(2-(tert-Butylamino)-2-oxoethyl)-6-azaspiro[2.5]octan-1-yl)-3-chloro-5-fluorobenzamide], the IC50 is greater than 100 µM in the data set with DRG ion channels Na+ and 10.7 µM against hERG channel.
Turning to `CC(C)(C)NC(=O)CN1CCC2(CC1)C[C@H]2NC(=O)c1cc(C(F)(F)F)cc(C(F)(F)F)c1` (single isomer, unassigned) [Example 144, ((R)—N-(6-(2-(tert-butylamino)-2-oxoethyl)-6-azaspiro[2.5]octan-1-yl)-3,5-bis(trifluoromethyl)benzamide or (S)—N-(6-(2-(tert-butylamino)-2-oxoethyl)-6-azaspiro[2.5]octan-1-yl)-3,5-bis(trifluoromethyl)benzamide], the IC50 in the data set on DRG ion channels Na+ was 34.4 µM; against Cardiac Na+ channels it was 19.2 µM; at hERG channel (Table 2, read-out: hERG IC50) it was 4.6 µM.
